Assay results: US10253060B2, “Terpenoid derivatives” (Daiichi Sankyo Company, Limited, priority 2013, dated 2019)

Key:
[1] = tested on: Hmox1 gene; test: Effect of inducing Nrf2 target gene (in vitro): Hmox1 gene expression in ARPE-19 cells, real-time quantitative PCR; type: cell-based, human; settings: for Hmox1 gene expression level (relative value): approx. 6 hours, 0 nM defined as 1.0, mean ± SD, 3 wells; for concentration at which the expression level of the Hmox1 gene was increased 2-fold / concentration at which the expression level of the Hmox1 gene was increased 5-fold: analysed with Prism
Method: The Hmox1 gene was used as the Nrf2 target gene.
The expression level of the Hmox1 gene induced by the addition of a test compound to ARPE-19 cells (human retinal pigment epithelium cell line, ATCC, catalog No. CRL-2302) was measured to examine the effect of inducing the Hmox1 gene by the test compound. The test compound was terpenoid derivative B of the present invention obtained in Example 1 and CDDO-Me as Comparative Example.
The ARPE-19 cells were cultured (5% CO2, 37° C.) using a DMEM/F12 (Life Technologies Japan Ltd., catalog No. 11330-032) mixed medium containing 10% inactivated FBS. The medium contained 100 units/mL (final concentration) penicillin and 100 μg/mL (final concentration) streptomycin.
The ARPE-19 cells were seeded at 60000 cells/well in a 24-well plate. The amount of the medium was 500 μL. Approximately 24 hours later, the medium was replaced with a medium containing terpenoid derivative B of the present invention obtained in Example 1 or CDDO-Me, and the culture was continued. Approximately 6 hours later, mRNA was collected from the ARPE-19 cells using an extraction kit (manufactured by Qiagen N.V., RNeasy Mini Kit, catalog No. 74106). From the obtained mRNA, cDNA was prepared using a cDNA synthesis kit (manufactured by GE Healthcare Life Sciences, First-Strand cDNA Synthesis Kit). The obtained cDNA was amplified using a reagent (manufactured by Applied Biosystems, Inc., TaqMan(R) Gene Expression Master Mix (catalog No. 4369016)) and a probe, and subjected to real-time quantitative PCR (Real-time PCR HT7900 manufactured by Applied Biosystems, Inc. was used).
When the concentration of the test compound was 0 nM, the expression level of the Hmox1 gene was defined as 1.0±0.0. The expression level of the Hmox1 gene at each concentration of the test compound was indicated as a relative value. Each group consisted of 3 wells and was indicated by a mean and standard deviation.
The activity ratios of terpenoid derivative B of the present invention to CDDO-Me were 2747 times and 92 times.

[2] = tested on: NQO1; test: NQO1 assay in Hepa1c1c7 cells; type: cell-based, mouse; settings: approx. 48 hours, mean of 3 wells
Method: Hepa1c1c7 cells (mouse hepatic cell line, ATCC, catalog No. CRL-2026) were cultured (5% CO2, 37° C.). A DMEM (Life Technologies Japan Ltd., catalog No. 11965-092) medium also containing 10% inactivated FBS was used. The medium contained 100 units/mL (final concentration) penicillin and 100 μg/[…] (final concentration) streptomycin. The NQO1 assay was conducted according to previous reports (Anal Biochem 1998; 169: 328-; and Methods Enzymol 2004; 382: 243-).
The Hepa1c1c7 cells were seeded at 10000 cells/well in a 96-well plate. The amount of the medium was 100 μL. Approximately 24 hours later, the medium was replaced with a medium containing CDDO-Me or each of terpenoid derivatives A to G, followed by further culture for approximately 48 hours. A lysis solution (a solution containing 2 mM EDTA and 0.8% digitonin), a reaction solution (a solution containing 0.025 M of tris-HCl, 0.067% of albumin, 0.01% of Tween-20, 2 U/mL of glucose-6-phosphate dehydrogenase, 5 μM of flavin adenine dinucleotide, 1 […], 30 μM of nicotinamide adenine dinucleotide phosphate, 0.03% of 3-(4,5-dimethyl-2-thiazolyl)-2,5-diphenyltetrazolium bromide (MTT), and 50 μM of menadione), and a stop solution (a solution containing 0.3 mM dicumarol and 5 mM potassium dihydrogen phosphate, pH 7.4) were prepared. After removal of the medium, 50 μL of the lysis solution was added thereto, and the mixture was left standing at 37° C. for 10 minutes. The reaction mixture was further shaken at room temperature for 10 minutes.
Two hundred μL of the solution was added thereto, and the mixture was left standing at room temperature for 5 minutes. Fifty μL of the stop solution was added thereto, and the absorbance at 490 nm was measured.
The test results were analyzed using Prism (GraphPad Software, Inc., Ver. 5) to calculate the CD value of the concentration at which the activity of NQO1 was increased 2-fold. Each group consisted of 3 wells and indicated as a mean of CD values.

[3] = tested on: ARPE-19 cells; test: Cytotoxicity, LDH-Cytotoxic Test in ARPE-19 cells; type: cell-based, human; settings: 10 μM, approx. 16 hours, 3 wells
Method: ARPE-19 cells (human retinal pigment epithelium cell line, ATCC, catalog No. CRL-2302) were cultured (5% CO2, 37° C.). A DMEM/F12 (Life Technologies Japan Ltd., catalog No. 11330-032) mixed medium containing 10% inactivated FBS was used. The medium contained 100 units/mL (final concentration) penicillin and 100 μg/[…] (final concentration) streptomycin.
The ARPE-19 cells were seeded at 5000 cells/well in a 96-well plate. The amount of the medium was 50 μL. Approximately 3 hours later, 50 μL of a medium containing CDDO-Me or each of terpenoid derivatives A to H was added thereto, followed by culture for approximately 16 hours. Then, cytotoxicity was evaluated using LDH-Cytotoxic Test (Wako Pure Chemical Industries, Ltd., catalog No. 299-50601). The evaluation method followed the attached document. Each group consisted of 3 wells and was indicated as cytotoxicity at the concentration of 10 μM. The means thereof were 43% for CDDO-Me, 2% for terpenoid derivative A, 2% for terpenoid derivative B, 2% for terpenoid derivative C, 1% for terpenoid derivative D, 2% for terpenoid derivative E, 3% for terpenoid derivative F, 3% for terpenoid derivative G, and 1% for terpenoid derivative H. Terpenoid derivatives A to H were low in cytotoxicity as compared with CDDO-Me.

Row | Structure (SMILES) | Hmox1 gene expression level (relative value) ([1]; 0.00001 nM test compound) | Hmox1 gene expression level (relative value) ([1]; 0.001 nM test compound) | Hmox1 gene expression level (relative value) ([1]; 0.03 nM test compound) | Hmox1 gene expression level (relative value) ([1]; 0.3 nM test compound) | Hmox1 gene expression level (relative value) ([1]; 3 nM test compound) | Hmox1 gene expression level (relative value) ([1]; 30 nM test compound) | concentration at which the expression level of the Hmox1 gene was increased 2-fold [1] | concentration at which the expression level of the Hmox1 gene was increased 5-fold [1] | CD value (concentration at which the activity of NQO1 was increased 2-fold) [2] | cytotoxicity (LDH-Cytotoxic Test), mean [3] | activity ratio to CDDO-Me (2-fold Hmox1 increase concentration) [1] | activity ratio to CDDO-Me (5-fold Hmox1 increase concentration) [1]
1 | COC(=O)[C@]12CCC(C)(C)C[C@H]1[C@H]1C(=O)C=C3[C@@]4(C)C=C(C#N)C(=O)C(C)(C)[C@@H]4CC[C@@]3(C)[C@]1(C)CC2 [CDDO-Me, methyl 2-cyano-3,12-dioxooleana-1,9-dien-28-oate, reference compound] | 1.1 ± 0.0 | 1.0 ± 0.1 | 1.4 ± 0.0 | 1.4 ± 0.1 | 2.1 ± 0.3 | 12.2 ± 2.6 | 2.5 nM | 11 nM | 1.0 nM | 43% | – | –
2 | COC(=O)[C@@]12CC[C@]3(C)[C@H](C(=O)C=C4[C@@]5(C)[C@H]6O[C@@]6(C#N)C(=O)C(C)(C)[C@@H]5CC[C@]43C)[C@@H]1CC(C)(C)[C@@H](O)C2 [terpenoid derivative B] | 1.3 ± 0.0 | 0.9 ± 0.1 | 5.4 ± 0.1 | 6.1 ± 0.5 | 10.4 ± 1.5 | 20.8 ± 1.9 | 0.00091 nM | 0.12 nM | 0.3 nM | 2% | 2747 times | 92 times
